# Experimental data reported in patent US20110319352A1, “Compounds That Bind Oxysterol Binding Proteins, and Methods of Use Thereof” (President and Fellows of Harvard College, priority 2008, published 2011).
# Residues, ends and D or L forms follow the SMILES beside them. *: point of attachment. Cbz = O=C(OCc1ccccc1)*
# Experiments:
# OSBP protein levels = OSBP protein levels by western blot; type: cell-based
# Protocol: One unanticipated discovery from the IF studies was that, after several hours, CRAM treatment of cells caused a significant reduction in the intensity of the OSBP fluorescent signal. This could mean that CRAMs are inducing a reduction in OSBP protein levels: an effect not observed with 25-OHC. The amount of OSBP protein in cells exposed to CRAMs was measured by western blot. […] Cephalostatin 1 induced a 70% reduction in OSBP at 12 h, and OSW-1 caused a 69% reduction in OSBP at 24 h. […] This supports a situation where reduction of OSBP levels by 1 and 2 is a result of a proteasome-dependent degradation process. One possible scenario is that 1 and 2 are also causing protein level reductions of ORPs and this is the source of cytotoxicity of CRAMs.
# pERK1/2 in HCT-116 cells = assay: Western blot of pERK1/2; type: cell-based; conditions: cephalostatin 1 50 nM, 25-OHC 20 μM 12 h
# Protocol: FIG. 21 depicts Western blot and densitometry analysis of pERK1/2 in HCT-116 cells during treatment with 50 nM cephalostatin 1. 25-OHC (20 μM) and okadaic acid (OKA, 10 nM) treatments were for 12 h and 24 h, respectively.
# As another test of whether CRAMs perturb a known OSBP function, it was determined whether CRAMs induce changes to the phosphorylation state of ERK1/2. As mentioned above, 25-OHC binds OSBP and causes disruption of a complex between OSBP and the phosphatases HePTP and PP2A. This blocks dephosphorylation of pERK1/2, leading to a persistence of pERK1/2. Opposing this effect is cholesterol, which binds OSBP, inducing formation of the OSBP-HePTP-PP2A ternary complex, causing ERK1/2 dephosphorylation (FIG. 13).
# [1] = cytotoxicity of 25-OHC (cells not named); type: cell-based; conditions: doses up to 1000 times its OSBP Kd
# [2] = tested on: OSBP localization in HCT-116 p21+/+ cells; assay: OSBP localization by immunofluorescence confocal microscopy; type: cell-based; conditions: compound exposure 4 h (OSW-1 1 nM)
# Protocol: FIG. 22 depicts OSBP localization in HCT-116 p21^+/+ cells imaged by immunofluorescence confocal microscopy. Immunofluorescence was used to image OSBP and the trans-Golgi protein p230 after compound exposure for 4 h. […] was labeled with Hoescht 33342.
# As another way to investigate how CRAMs may affect OSBP, immunofluorescence (IF) experiments were performed in HCT-116 p21^+/+ cells to determine whether OSBP localization was altered upon treatment with different CRAMs. In untreated cells, OSBP resides largely at ER/cytoplasmic sites with a partial localization at the Golgi (FIG. 22A).
# This translocation has been reported many times in the literature as an effect of 25-OHC on OSBP. Treatment of cells with OSW-1 at 1 nM for 4 h caused a dramatic and unprecedented effect on OSBP localization (FIG. 22C). […] In this case p230 has been dispersed (see […]). The translocation of OSBP induced by 2 is distinct from that of 25-OHC. […] They also reveal that the effects on OSBP translocation by 1 and 2 are distinct from 25-OHC.
# HCT-116 p21+/+ cells = conditions: literature value [6]; cited from earlier work
# HCT-116 p21−/− cells [3] = conditions: cited from earlier work
# HCT-116 p21−/− cells [4] = assay: growth inhibition of HCT-116 cells lacking p21 (p21 dependence); type: cell-based; conditions: for dependence of growth inhibition on p21 status: HCT-116 p21−/− versus p21+/+
# From the text: Values are mean±SD of 3 individual experiments each performed in sextublicate or from a single experiment performed in sextublicate. Values for […] were reported in the literature (see Beutler J A, Shoemaker R H, Johnson T, Boyd M R. “Cytotoxic geranyl stilbenes from Macaranga schweinfurthii,” J. Nat. Prod. 1998, 61(12), 1509-12).
# [5] […] This shared p21 differential cytotoxicity supports the idea of a common CRAM mechanism of action and likely similar target. […] However, caution has to be exercised in concluding that compounds found to be selective for p21 deficient HCT-116 cells are truly synthetic lethal with p21. It was recently reported that compounds shown to be hypersensitive to HCT-116 p21^−/− cells was actually due to an overexpression of p53 in that cell line. Subsequent siRNA knockdown of p53 eliminated the apparent p21 synthetic lethality.
# [5] = tested on: HCT-116 p21−/− shNT and shOSBP cells; assay: CRAM cytotoxicity after shRNA knockdown of OSBP, HCT-116 p21−/−; type: cell-based; conditions: HCT-116 p21−/−; for sensitization (GI50 shift) by OSBP knockdown: OSBP knockdown by 84%
# From the text: FIG. 17 depicts CRAM cytotoxicity in shRNA OSBP knockdown cell lines. A: Dose curves from a representative experiment. B: GI50 values of CRAMs and control compounds in HCT-116 p21−/− shNT and shOSBP cells and densitometric analysis of OSBP-levels. shNT=non-targeting shRNA, shOSBP=OSBP-targeting shRNA; * P=0.0006 (n=4), ** P=0.0002 (n=3), *** P=0.0003 (n=3), and **** P≦0.0001 (n=7) compared to shNT-treated cells.
# To determine whether the cytotoxicity of CRAMs depends on the amount of OSBP in cells, the effects of shRNA knockdown of OSBP on the growth inhibitory activity of CRAMs was measured. Treatment of HCT-116 p21^−/− cells with shRNA targeted to OSBP [24] caused an 84% reduction in the level of OSBP as measured by western blot (FIG. 17B, bottom right).
# recombinant OSBP-myc-his = target: T1, recombinant OSBP-myc-his (Homo sapiens, UniProt P22059); assay: competitive binding assay, displacement of [3H]-25-OHC from OSBP (charcoal-dextran, liquid scintillation counting); conditions: for displacement of OSBP-bound [3H]-25-OHC: at low micromolar-concentrations
# T1 construct: made in house; host or cells: HEK-293T (crude S100 lysate, not purified)
# T1 sequence (P22059 1-807): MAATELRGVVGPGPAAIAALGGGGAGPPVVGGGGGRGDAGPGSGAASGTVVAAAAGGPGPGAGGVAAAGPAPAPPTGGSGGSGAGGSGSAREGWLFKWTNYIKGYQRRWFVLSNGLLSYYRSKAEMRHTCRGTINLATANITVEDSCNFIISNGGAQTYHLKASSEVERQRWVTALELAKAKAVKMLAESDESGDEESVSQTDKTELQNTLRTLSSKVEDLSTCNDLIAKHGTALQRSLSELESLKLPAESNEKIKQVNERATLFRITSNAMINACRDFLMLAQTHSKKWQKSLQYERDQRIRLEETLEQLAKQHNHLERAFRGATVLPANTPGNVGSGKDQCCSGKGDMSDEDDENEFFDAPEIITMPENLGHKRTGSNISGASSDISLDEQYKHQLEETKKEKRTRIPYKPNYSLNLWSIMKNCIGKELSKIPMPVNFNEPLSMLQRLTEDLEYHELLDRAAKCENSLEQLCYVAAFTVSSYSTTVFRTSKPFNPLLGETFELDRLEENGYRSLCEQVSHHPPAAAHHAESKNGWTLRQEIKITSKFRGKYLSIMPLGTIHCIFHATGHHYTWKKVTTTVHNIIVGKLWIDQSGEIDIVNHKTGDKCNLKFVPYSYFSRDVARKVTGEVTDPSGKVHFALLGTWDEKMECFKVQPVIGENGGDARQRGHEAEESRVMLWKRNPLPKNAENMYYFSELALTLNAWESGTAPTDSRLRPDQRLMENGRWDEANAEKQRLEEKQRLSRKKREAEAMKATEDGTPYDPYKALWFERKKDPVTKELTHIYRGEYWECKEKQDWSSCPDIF
# Protocol: It has been determined that CRAMs inhibit the binding of radiolabelled 25-OHC ([^3H]-25-OHC) to recombinant OSBP-myc-his and ORP4-myc-his overexpressed in HEK-293T lysate (FIG. 18). It is known that 25-hydroxycholesterol is a high affinity ligand for OSBP and ORP4. Increasing concentrations of CRAMs or OSW-1 analogs were incubated with 20 nM [^3H]-25-OHC in OSBP-myc-his or ORP4-myc-his S100 lysate for 16 h at 4° C. after which unbound sterol was removed using charcoal-dextran and the bound sterol quantified by LCS (liquid scintillation counting).
# These experiments provide evidence that CRAMs are ligands of OSBP and ORP4, and in the case of 1 and 2, they are high affinity ligands.
# To measure the Kis of CRAMs to OSBP and ORP4 reported above, a previously reported dextran-coated charcoal assay was adapted into a 96-well format. […] To solve these limitations a binding SPA (scintillation proximity assay) for OSBP/ORPs (FIG. 26) will be developed.
# tumor xenograft = conditions: i.p. 9.3 mg/kg (Q2D×4); cited from earlier work
# NCI-60 = conditions: read-out: GI50, average against the NCI-60; cited from earlier work
compound,measurement,setting,value
"C[C@H](CCCC(C)(C)O)[C@H]1CC[C@H]2[C@@H]3CC=C4C[C@@H](O)CC[C@]4(C)[C@H]3CC[C@]12C [25-OHC, 25-hydroxycholesterol, reference compound]",effect on OSBP protein levels,OSBP protein levels,not observed
same,pERK1/2 levels,pERK1/2 in HCT-116 cells,had the same effect as CRAMs
same,cytotoxicity,[1],not cytotoxic
same,effect on OSBP localization,[2],OSBP translocates to the Golgi
CC(/C=C/C=C(C)/C=C/C=C(\C)C(=O)O)=C1/C(=O)C[C@H]2[C@@]3(C)CCC(=O)C(C)(C)[C@@H]3CC[C@]12C [(−)-stellettin E],GI50,HCT-116 p21+/+ cells,4570 nM
same,GI50,HCT-116 p21−/− cells [3]; literature value [6],39 nM
same,more cytotoxic to HCT-116 p21−/− compared to parental HCT-116,"HCT-116 p21−/− cells [3]; ratio of GI50, literature",117 times
same,more active in HCT-116 lacking the p21 protein,HCT-116 p21−/− cells [3]; reported in the literature,117 fold
C[C@@H]1[C@]2(O[C@H]3C=C4[C@@H]5CC[C@H]6Cc7nc8c(nc7C[C@]6(C)[C@H]5C[C@@H](O)[C@]4(C)[C@]31O)C[C@@H]1CC[C@H]3C4=CC[C@@H]5[C@H](C)[C@@]6(OC[C@]45C(=O)C[C@@H]3[C@@]1(C)C8)OC(C)(C)C[C@H]6O)O[C@](C)(CO)C[C@H]2O [Cephalostatin 1],effect on OSBP protein levels,OSBP protein levels,time-dependent reduction in OSBP protein levels
same,reduction in OSBP,OSBP protein levels; at 12 h,70%
same,pERK1/2 levels,pERK1/2 in HCT-116 cells,significant increase in pERK1/2 starting at 12 h and persisting for at least 24 h
same,"differential GI50, HCT-116 p21−/− versus p21+/+",HCT-116 p21−/− cells [4]; 48 h (FIG. 14),44 fold
same,effect on OSBP localization,[2],caused a significant amount of OSBP to co-localize with the plasma membrane
same,sensitization (GI50 shift) by OSBP knockdown,[5],3.5 fold
same,Ki,"recombinant OSBP-myc-his; 20 nM [3H]-25-OHC, OSBP-myc-his S100 lysate (HEK-293T), 16 h at 4° C., read-out: Ki, displacing OSBP-bound [3H]-25-OHC",50 nM
"CC(C)C[C@@H](C=O)NC(=O)[C@H](CC(C)C)NC(=O)[C@H](CC(C)C)NC(=O)OCc1ccccc1 [MG132, reference compound] (Cbz-Leu-Leu-Leu-aldehyde)",effect on OSBP protein levels,OSBP protein levels,complete rescue of OSBP levels
"COc1cc(/C=C/c2cc(O)c(C/C=C(\C)CCC=C(C)C)c(O)c2)cc2c1O[C@]1(C)C[C@@H](O)[C@@H](O)C(C)(C)[C@H]1C2 [Schweinfurthin B, schweinfurthin B, reference compound]",effect on OSBP localization,[2],"induced OSBP translocation, but in a manner similar to the 25-OHC effect"
"CC(C)C[C@H](NC(=O)[C@H](Cc1ccccc1)NC(=O)c1cnccn1)B(O)O [bortezomib, reference compound]",sensitization by OSBP knockdown,[5],does not sensitize
"C[C@H]1CCC/C=C/[C@@H]2C[C@H](O)C[C@H]2[C@H](O)/C=C/C(=O)O1 [brefeldin A, reference compound]",sensitization by OSBP knockdown,[5],does not sensitize
"CC(=O)O[C@H]1C(=O)[C@@]2(C)[C@H]([C@H](OC(=O)c3ccccc3)[C@]3(O)C[C@H](OC(=O)[C@H](O)[C@@H](NC(=O)c4ccccc4)c4ccccc4)C(C)=C1C3(C)C)[C@]1(OC(C)=O)CO[C@@H]1C[C@@H]2O [taxol, reference compound]",sensitization by OSBP knockdown,[5],does not sensitize
ritterazine B,dependence of growth inhibition on p21 status,HCT-116 p21−/− cells [4],selectively growth inhibitory for HCT-116 cells lacking p21
same,sensitization by OSBP knockdown,[5],sensitized
same,displacement of OSBP-bound [3H]-25-OHC,recombinant OSBP-myc-his,displaced the bound ligand
schweinfurthin A,dependence of growth inhibition on p21 status,HCT-116 p21−/− cells [4],selectively growth inhibitory for HCT-116 cells lacking p21
same,sensitization by OSBP knockdown,[5],sensitizes
same,sensitization (GI50 shift) by OSBP knockdown,[5],8.9 fold
same,toxicity in xenograft mice,tumor xenograft,without overt toxicity
same,tumor volume,tumor xenograft,reduction in tumor volume compared to vehicle-treated controls
same,displacement of OSBP-bound [3H]-25-OHC,recombinant OSBP-myc-his,displaced the bound ligand
same,GI50,NCI-60,360 nM
